Experimental findings from patent US4293483A, “Derivatives of A-30912A nucleus” (priority 1980, dated 1981) are described below.

The test system of this experiment is fungi. The experiment can be described thus: Antifungal activity of the cyclic nucleus. The format is cell-based. As to conditions: in words; nucleus lacking the linoleoyl side chain.

Numbered stars: 1 amine (or outer) side, 2 acyl side, 3 side chain; on linkers, the order of the positions; unused ones are H or OH. Bridge positions count the residues as written; N and C are the ends. Square brackets hold non-standard residues; d marks the D form. Peptide text beside a SMILES is read from it. Orn(4R-OH,5R-OH) = O=C([C@H](C[C@@H](O)[C@@H](O)N[*:3])N[*:1])[*:2]; hTyr(3S-OH,4S-OH) = N[C@H](C(=O)O)[C@H](O)[C@@H](O)c1ccc(O)cc1; Pro(3S-OH,4S-Me) = C[C@H]1CN[C@H](C(=O)O)[C@H]1O; Hyp = O=C(O)[C@@H]1C[C@@H](O)CN1

Consider `C[C@@H](O)[C@@H]1NC(=O)[C@H]([C@H](O)[C@@H](O)c2ccc(O)cc2)NC(=O)[C@@H]2C[C@@H](O)CN2C(=O)[C@H]([C@@H](C)O)NC(=O)[C@@H](N)C[C@@H](O)[C@@H](O)NC(=O)[C@@H]2[C@@H](O)[C@@H](C)CN2C1=O` [A-30912A nucleus] (H-[Orn(4R-OH,5R-OH)]T[Hyp][hTyr(3S-OH,4S-OH)]T[Pro(3S-OH,4S-Me)]; lactam 1-C), for which the antifungal activity entry is recorded as “substantially devoid of antifungal activity”.
